The values below come from patent US20140309192A1, “MODULATORS OF THE G PROTEIN-COUPLED MAS RECEPTOR AND THE TREATMENT OF DISORDERS RELATED THERETO” (ARENA PHARMACEUTICALS, INC., priority 2011, published 2014).

Molecules are shown by their SMILES. “Also recorded” adds a separate entry of the source.

As a reminder, the IC50 is the concentration that gives 50% inhibition.

Test [1] has as its target T1, human Mas receptor (Homo sapiens, UniProt P04201).
T1 construct: expressed in transfected cells; host or cells: HEK293 (ATCC CRL-1573)
T1 sequence (P04201 1-325): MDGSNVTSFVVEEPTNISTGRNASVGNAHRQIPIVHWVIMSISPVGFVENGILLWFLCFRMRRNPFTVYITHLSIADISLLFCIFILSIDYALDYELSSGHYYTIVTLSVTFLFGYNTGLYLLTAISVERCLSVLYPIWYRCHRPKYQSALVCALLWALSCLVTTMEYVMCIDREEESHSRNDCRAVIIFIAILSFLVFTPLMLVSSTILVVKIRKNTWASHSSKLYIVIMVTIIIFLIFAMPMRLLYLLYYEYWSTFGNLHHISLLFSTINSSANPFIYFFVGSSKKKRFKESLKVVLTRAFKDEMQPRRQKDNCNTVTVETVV
Briefly: Ca2+ measurements by FLIPR assay, HEK293 cells stably expressing human Mas receptors. It counts as cell-based. Particulars: HEK293 cells stably expressing the human Mas receptor. How it is done: HEK293 cells stably expressing human Mas receptors were monitored for changes in intracellular Ca^2+ using a FLIPR-384 (Molecular Devices, Sunnyvale, Calif.). Cells were seeded into black-walled clear-base 384-well plates at a density of 2×10^4 cells per well and incubated with Hank's Balanced Salt Solution (HBSS) containing 20 mM HEPES pH 7.4, 2 μM Calcium 3 dye (Molecular Devices Corporation, Sunnyvale, Calif.) and 2.5 mM probenecid at 37° C. for 60 min. Cells were washed with HBSS containing 20 mM HEPES, pH 7.4 and 2.5 mM probenecid and the plates were then placed into the FLIPR instrument to monitor cell fluorescence before and after the addition of the agonists at different concentrations.

Test [2] has as its system isolated perfused rat hearts. In words: Ex vivo coronary flow, Langendorff perfused isolated rat hearts. Particulars: AR234960 1 μM. The procedure:
Coronary flow was measured in male Mas^−/− and Mas^+/+ mice, and in male Sprague-Dawley rats using Langendorff perfused isolated hearts. Freshly isolated hearts were placed on a Langendorff apparatus (Harvard Apparatus) and perfused at a constant pressure of 80 mmHg with a modified Krebs-Henseleit buffer solution (Sigma K3753) and aerated with 95% oxygen and 5% carbon dioxide, pH 7.35-7.4. The temperature was maintained at 37° C. by surrounding the heart with a water-heated glassware chamber. Coronary flow was measured using a flow measurement system (Harvard Apparatus) which included the transit time flow meter and a flow probe built into an adaptor block located at the perfusate inflow port. Data were recorded continuously using an ISOHEART data acquisition system (Harvard Apparatus). After a 20-min equilibration period, Mas compounds were added to the perfusion buffer reservoir at the desired concentration (agonist AR234960 at 1 μM, or inverse agonist AR244555 at 5 μM) and coronary flow was recorded for 10 min
To determine the role of the Mas-Gq-PLC pathway in regulating coronary flow, the Mas inverse agonist AR244555 (5 μM) or the PLC inhibitor U-73122 (0.5 μM) was added to the perfusion buffer for 10 min and then the agonist AR234960 (1 μM) was added to the perfusion buffer. Coronary flow was recorded for another 10 min Changes in coronary flow induced by AR234960 were calculated as percentage of the coronary flow at 10 min following AR234960 treatment, relative to the coronary flow measured immediately prior to addition of AR234960. This protocol allowed for measurement of agonist mediated vasoconstrictor activity, and accounted for changes in baseline coronary flow due to inverse agonist treatment alone.
To determine whether Mas agonist-induced changes in coronary flow were endothelium-dependent, the responses in Langendorff perfused hearts were measured after chemical removal of endothelium with sodium deoxycholate. After a 20-min equilibration period, sodium deoxycholate was added to the perfusion buffer at 0.2 mg/mL for 3 min and then washed out for 10 min Mas compounds were added and coronary flow was recorded for 10 min Adenosine (1 μM), a coronary vasodilator that targets the endothelium, was used as a control to verify effective removal of endothelium.

Test [3] concerns the target T1, human Mas receptor. Briefly: cAMP Dynamic2 HTRF assay, HEK293 cells stably expressing human Mas receptor. The test is classed as cell-based. The procedure:
cAMP accumulation in HEK293 cells stably expressing human or rat Mas receptors was determined by the 384 well cAMP Dynamic2 Homogenous Time-Resolved Fluorescence (HTRF®) assay (CisBio Cat#62AM4PEB) following the manufacturer's protocol. Briefly, cells were plated at 30,000 or 1000 cells per well in 5 μL stimulation buffer (PBS containing 500 μM IBMX and 0.1% bovine serum albumin), 5 μL of Mas compounds diluted in PBS were added to each well and serial diluted cAMP standards were also added to corresponding wells at this step. For detecting […] activities, 10 μM forskolin was included with the compounds for a final concentration of 5 μM at the stimulation step. Following 1 h stimulation at room temperature, d2-labeled cAMP and anti-cAMP cryptate conjugate diluted in detection buffer (included in the kit) were added to cells sequentially at 5 μl per well. The plates were incubated further for 1 h at room temperature. Ratiometic measurements of fluorescence emission at 665 nm and 620 nm were obtained by Pherastar fluorometer (BMG Labtech) and cAMP levels in each well were calculated according to the standard curves on each plate. IC50 values were obtained by fitting data to a nonlinear curve-fitting program (GraphPad Software, Inc., La Jolla Calif.).
(Time-resolved FRET reads energy transfer from a long-lived donor to a nearby acceptor.)

Test [4] has as its system LPS induced TNFα. In words: LPS model for sepsis induction, serum TNFα ELISA in mice. It counts as in vivo, mouse. The procedure: Mice were treated intravenously with either 20% DMSO (vehicle), 1, 3 or 10 mg/kg Compound 170 in 20% DMSO. Alternatively animals were treated with 1 mg/kg IB-MECA in 0.1% DMSO as a positive control (n=6 per group). 1 hour after drug treatment, animals received 500 μg of LPS intraperitoneally Animals were bled 75 minutes after LPS treatment and the blood was spun down for serum. An ELISA for mouse TNFα (Invitrogen) was performed on 1:50 diluted samples the following day.
(In general: In an ELISA, binding on a coated surface is turned into a signal by an enzyme label.)

On to `COc1cc([N+](=O)[O-])ccc1S(=O)(=O)N1CC(CN2CCN(c3ccccn3)CC2)C(c2cccc(F)c2)C1` (stereo not shown) [AR234960], for which the “intracellular Ca2+” value in test [1] was “significant increase”. The “coronary flow in isolated perfused rat hearts” value in test [2] (AR244555 5 μM, 10 min) is recorded as “decrease in coronary flow; also recorded: significantly decreased”. The “compound-mediated change in coronary flow in endothelium denuded hearts” value in test [2] (after sodium deoxycholate, adenosine 1 μM) is listed as “preserved”. Further, the concentration for half-maximal inhibition (IC50) in test [3] (cAMP assay with forskolin, read-out: Gi coupling IC50) was determined as 0.719 ± 0.012 µM. Moreover, the “forskolin stimulated cAMP levels (Mas-Gi activity)” value in test [3] (cells stably expressing human or rat Mas receptor, 5 μM forskolin) was “dose dependent reduction”.

`NC(=O)[C@H](CO)NCc1ccc(C(=O)Nc2ccc(Cl)cc2N2CCN(CCC(F)(F)F)CC2)c(F)c1F` [Compound 170, (S)-4-((1-Amino-3-hydroxy-1-oxopropan-2-ylamino)methyl)-N-(4-chloro-2-(4-(3,3,3-trifluoropropyl)piperazin-1-yl)phenyl)-2,3-difluorobenzamide]: the “Suppression of TNFα induction compared with positive control” value in test [4] (10 mg/kg i.v., IB-MECA 1 mg/kg) is “not statistically different from the positive control IB-MECA”. Further, the “Suppression of TNFα induction” value in test [4] (1, 3 or 10 mg/kg i.v. 1 hour before 500 μg LPS i.p., serum 75 minutes after LPS) is “significant to control treated animals at the 10 and 3 mg/kg dose; also recorded: suppression of TNFα induction”.
